Laboratory results reported in ChEMBL document CHEMBL1201862, “PubChem BioAssay data set” (2004).
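Growth conditions: 96-well plates. Treatment: test compound, 48 hours, 5 concentrations. Analysis: linear interpolation between bracketing concentrations; unreached endpoints set to highest concentration. GI50 = concentration required for 50% inhibition of growth.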 Active and inactive are the calls of the source. Cut-off read from the data, not from the text of the source: active = GI50 up to about 1.1 µM and inactive = higher.

What was measured:
Assay in all cases: NCI-60 cell line screen, 48 h
[1] = tested on: SF-268
[2] = tested on: SF-295
[3] = tested on: U-251
[4] = tested on: HCT-15
[5] = tested on: COLO 205
[6] = tested on: HOP-62
[7] = tested on: SK-OV-3
[8] = tested on: SNB-19
[9] = tested on: NCI-H460
[10] = tested on: RXF 393
[11] = tested on: MOLT-4
[12] = tested on: NCI-H23
[13] = tested on: EKVX
[14] = tested on: SK-MEL-5
[15] = tested on: RPMI-8226
[16] = tested on: HCC 2998
[17] = tested on: KM12
[18] = tested on: HCT-116
[19] = tested on: SR
[20] = tested on: DU-145

| SMILES | GI50 [1] | GI50 [2] | GI50 [3] | GI50 [4] | GI50 [5] | GI50 [6] | GI50 [7] | GI50 [8] | GI50 [9] | GI50 [10] | GI50 [11] | GI50 [12] | GI50 [13] | GI50 [14] | GI50 [15] | GI50 [16] | GI50 [17] | GI50 [18] | GI50 [19] | GI50 [20] |
| --- | --- | --- | --- | --- | --- | --- | --- | --- | --- | --- | --- | --- | --- | --- | --- | --- | --- | --- | --- | --- |
| N#CC1=C2SCCN2C(=O)C(C#N)C12CCCCC2 (stereo not given) | > 100 µM (inactive) | > 100 µM (inactive) | > 100 µM (inactive) | > 100 µM | > 100 µM (inactive) | > 100 µM (inactive) | > 100 µM (inactive) | > 100 µM (inactive) | > 100 µM (inactive) | 59.4 µM (inactive) | > 100 µM (inactive) | > 100 µM (inactive) | > 100 µM (inactive) | > 100 µM (inactive) | > 100 µM (inactive) | > 100 µM (inactive) | > 100 µM (inactive) | > 100 µM (inactive) | > 100 µM (inactive) | > 100 µM (inactive) |
| COC(=O)C1CC(C=[N+](C)C)=C(SC)N1 (stereo not given) | > 100 µM (inactive) | > 100 µM (inactive) | > 100 µM (inactive) | > 100 µM | > 100 µM (inactive) | > 100 µM (inactive) | > 100 µM (inactive) | > 100 µM (inactive) | 98.2 µM (inactive) | > 100 µM (inactive) | > 100 µM (inactive) | > 100 µM (inactive) | > 100 µM (inactive) | > 100 µM (inactive) | > 100 µM (inactive) | > 100 µM (inactive) | > 100 µM (inactive) | > 100 µM (inactive) | > 100 µM (inactive) | > 100 µM (inactive) |
| CC1CC[C@@]2(OC1)OC1C[C@H]3[C@@H]4CC=C5CC(OC6OC(CO)C(OC7OC(CO)C(O)C(OC8OCC(O)C(O)C8O)C7OC7OC(CO)C(OC8OC(C)C(OC9OC(C)C(O)C(O)C9O)C(O)C8O)C(O)C7O)C(O)C6O)CCC5(C)[C@H]4CCC3(C)C1[C@@H]2C (stereo not given in full) | 9.71 µM (inactive) | 6.71 µM (inactive) | 9.04 µM (inactive) | 9.64 µM | 8.22 µM (inactive) | 7.13 µM (inactive) | 9.23 µM (inactive) | 5.61 µM (inactive) | 9.93 µM (inactive) | 6.34 µM (inactive) | 11.6 µM (inactive) | 8.97 µM (inactive) | 8.28 µM (inactive) | 8.69 µM (inactive) | 10.8 µM (inactive) | 7.08 µM (inactive) | 9.33 µM (inactive) | 8.47 µM (inactive) | 0.495 µM (active) | 7.87 µM (inactive) |
| O=C1C(=C(C(F)(F)Cl)C(F)(F)Cl)C2CCC1C2 (stereo not given) | 2.41 µM (inactive) | 4.67 µM (inactive) | 5.27 µM (inactive) | 1.98 µM | 1.67 µM (inactive) | > 9.16 µM (inactive) | > 10 µM (inactive) | > 10 µM (inactive) | 3.15 µM (inactive) | 1.63 µM (inactive) | 0.0131 µM (active) | 1.96 µM (inactive) | > 10 µM (inactive) | 1.67 µM (inactive) | 0.849 µM (active) | 5.31 µM (inactive) | 3.01 µM (inactive) | 1.9 µM (inactive) | 0.0655 µM (active) | 7.53 µM (inactive) |
| C=C1C(=O)OC2CC1C(O)C/C(C)=C/CC/C(C)=C/C(O)CC2C (stereo not given) | 2.79 µM (inactive) | 13.3 µM (inactive) | 4.68 µM (inactive) | 1.73 µM | 1.49 µM (inactive) | 11.4 µM (inactive) | 12.7 µM (inactive) | 5.47 µM (inactive) | 2.88 µM (inactive) | 1.01 µM (active) | 0.625 µM (active) | 2.44 µM (inactive) | 1.87 µM (inactive) | 4.19 µM (inactive) | 1.32 µM (inactive) | 1.83 µM (inactive) | 5.21 µM (inactive) | 1.45 µM (inactive) | 0.52 µM (active) | 2.2 µM (inactive) |
| O=C1C=CC(=O)c2c1ccc1c3ccccc3n(CCCCCn3c4ccccc4c4ccc5c(c43)C(=O)C=CC5=O)c21 | 15.7 µM (inactive) | > 100 µM (inactive) | 20 µM (inactive) | 17.2 µM | 15.2 µM (inactive) | > 91.4 µM (inactive) | > 100 µM (inactive) | 41.2 µM (inactive) | > 78 µM (inactive) | 5.68 µM (inactive) | 1.52 µM (inactive) | 16 µM (inactive) | 33.3 µM (inactive) | 32.4 µM (inactive) | 4.14 µM (inactive) | 33 µM (inactive) | > 100 µM (inactive) | 12.8 µM (inactive) | 1.9 µM (inactive) | > 55.7 µM (inactive) |
| Nc1nc(-c2cccc([N+](=O)[O-])c2)cc(-c2cc(-c3cccc([N+](=O)[O-])c3)nc(N)n2)n1 | > 100 µM (inactive) | > 100 µM (inactive) | > 100 µM (inactive) | > 100 µM | > 100 µM (inactive) | > 100 µM (inactive) | > 100 µM (inactive) | > 100 µM (inactive) | > 100 µM (inactive) | > 100 µM (inactive) | > 100 µM (inactive) | > 100 µM (inactive) | > 100 µM (inactive) | > 100 µM (inactive) | > 100 µM (inactive) | > 100 µM (inactive) | > 100 µM (inactive) | > 100 µM (inactive) | > 100 µM (inactive) | > 100 µM (inactive) |
| C=CC1(c2ccc(Br)cc2)OCCCO1 | > 100 µM (inactive) | > 100 µM (inactive) | > 100 µM (inactive) | > 100 µM | > 100 µM (inactive) | > 100 µM (inactive) | > 100 µM (inactive) | > 100 µM (inactive) | > 100 µM (inactive) | > 100 µM (inactive) | > 100 µM (inactive) | > 100 µM (inactive) | > 100 µM (inactive) | > 100 µM (inactive) | > 100 µM (inactive) | > 100 µM (inactive) | > 100 µM (inactive) | > 100 µM (inactive) | > 100 µM (inactive) | > 100 µM (inactive) |
| CN(C)c1ccc(/N=C2/C=CC(=C(C#N)C#N)c3ccccc32)cc1 | 0.38 µM (active) | 0.291 µM (active) | 0.333 µM (active) | 0.195 µM | 0.0957 µM (active) | 0.468 µM (active) | 0.332 µM (active) | 0.536 µM (active) | 0.332 µM (active) | 0.46 µM (active) | 0.196 µM (active) | 0.259 µM (active) | 0.955 µM (active) | 0.133 µM (active) | 0.122 µM (active) | 0.244 µM (active) | 0.381 µM (active) | 0.117 µM (active) | 0.0345 µM (active) | 0.259 µM (active) |
| Cc1ccc(S(=O)(=O)NNC(C[N+](=O)[O-])c2ccccc2)cc1 (stereo not given) | 15.3 µM (inactive) | 21.3 µM (inactive) | 14.5 µM (inactive) | 15.9 µM | 14.4 µM (inactive) | 26.7 µM (inactive) | 21.9 µM (inactive) | 7.14 µM (inactive) | 17.9 µM (inactive) | 2.94 µM (inactive) | 3.56 µM (inactive) | 43 µM (inactive) | 75.5 µM (inactive) | 19.4 µM (inactive) | 3.56 µM (inactive) | 2.9 µM (inactive) | 14.1 µM (inactive) | 4.14 µM (inactive) | 1.06 µM (active) | 44.5 µM (inactive) |
| O=C(O)CSc1ccc(N=C=S)cc1 | 71.6 µM (inactive) | 89.3 µM (inactive) | 72.3 µM (inactive) | 62.8 µM | 53.2 µM (inactive) | 54.1 µM (inactive) | > 100 µM (inactive) | > 100 µM (inactive) | 56.9 µM (inactive) | 28.4 µM (inactive) | 20.4 µM (inactive) | 78.9 µM (inactive) | > 100 µM (inactive) | 37.8 µM (inactive) | 20.8 µM (inactive) | 31.1 µM (inactive) | > 100 µM (inactive) | 64.3 µM (inactive) | 3.43 µM (inactive) | 75.2 µM (inactive) |
